Source: patent US4698332A, “Expectorant” (Mect Corporation, priority 1984, dated 1987)

Legend:
[1] = system: palatine mucosa of frog; experiment: Ciliary movement of frog palatine mucosa, particle transport method (Example 3, Tables 1-3); type: cell-based, bull frog
Method: Bull frogs (furnished by Saitama Test Animal) weighing 300 to 450 g were used regardless of sex.
N-acetylneuraminic acid and calcium salt of N-acetylneuraminic acid (provided by Kanto Ishiseiyaku Kabushiki Kaisha), as well as acetylcholine chloride (furnished by Sigma Kabushiki Kaisha) were used as the test substances.
Mucociliary transport was measured by the particle transport method. After decapitation of a frog, the surface of the palatine mucosa was separated with minimized damage and of fixed to a cork plate in a Petri dish which was then filled with 20 ml of Ringer's solution (trishydrochloric acid). The palatine mucosa was left in this state for 30 minutes before the commencement of measurement. For measurement, the Ringer's solution was removed and fine pieces of cork (capable of passing pharmaceutical sieve No. 5 but not capable of passing No. 6) were placed on the surface of the palatine mucosa, and the time (in seconds) required for the cork piece to move 1 cm was measured. The duration of movement, i.e., moving speed, was measured also in the state immediately after the removal of the Ringer's solution or pharmaceutical solution.

[2] = Acute toxicity test of N-acetylneuraminic acid, rats (Example 6); type: in vivo, SD rats; details: rat, in vivo
Method: (§1) A test was conducted to examine the acute toxicity of N-acetylneuraminic acid, using mice and rats, by means of intravenous injection, subcutaneous injection, per os inhalation.
(§2) SD rats: 6 weeks old (7 weeks old in case of inhalation)
(§3) 13 to 15% (W/V) dissolved in distilled water
(§4) By Litchfield-Wilcoxon method.
(§5) Inhalation was conducted by 1hr exposure to mist.

[3] = system: rats; experiment: as above; type: in vivo, SD rats; details: inhalation, 1hr exposure to mist
Method: as §1, §2, §3, §4, §5

[4] = Physicochemical properties (pH, yield value, spinnability) of treated sputum (Example 5); set-up: species or system human; details: for Yield value after treatment / pH of sputum after treatment / Spinnability after treatment: 2 mg
Method: (§6) Mucociliary transport rate (hereinunder referred to as MTR), i.e. the rate of transport of sputum by cilia, was measured using frog palatine mucosa. At the same time, physicochemical properties of the sputum before and after application of N-acetylneuraminic acid were compared.
(§7) The sputum used as the specimens was collected from 12 samples of patients suffering from chronic obstructive lung disease. N-acetylneuraminic acid was added to the specimen sputum in the ratios of 5 mg/ml sputum and 1 mg/ml sputum, and the specimen was left for 1 hour at 4° C. before measurement. Sputum which has not been treated by N-acetylneuraminic acid was used as a comparison example. A palatine mucosa obtained from a decapitated frog head was kept at constant temperature and humidity until the mucus liquid of the frog itself depleted. The specimen sputum was placed on the dried palatine mucosa, and the speed of movement of the sputum was observed through a noumenal microscope, thus measuring the MTR. The pH value of the sputum was measured by means of an electronic model HM-SAp pH meter, while the spinnability was measured by a device developed by Nagaoka and Yamanaka (disclosed in Transactions of 2nd Symposium of Cough and sputum, published July 20, 1979). The yield value was measured by Dulfano's double-tube method which is shown in the American Review of Respiratory Diseases, Vol. 104, p88, 1971.

[5] = Acute toxicity test of N-acetylneuraminic acid, mice (Example 6); set-up: species or system ICR mice; details: mouse, in vivo
Method: as §1, §3, §4

[6] = system: sputum of patients with chronic obstructive lung disease on frog palatine mucosa; experiment: Mucociliary transport rate (MTR) of treated sputum on frog palatine mucosa (Example 5); set-up: species or system human sputum; frog palatine mucosa; details: for MTR after treatment: 2 mg
Method: as §6, §7

[7] = system: ciliated cells from human airway and frog palate; experiment: Rotation of ciliated cell groups (Example 4); type: cell-based
Excerpt: Using ciliated cells from human airway and frog palate, rotation of cell groups due to ciliary beat was observed before and after application of N-acetylneuraminic acid and calcium salt of N-acetylneuraminic acid, in order to confirm the effect of these agents on the cilitated cells.
Human ciliated cells were collected from a normal trachea by means of a branchoscope, the ciliated cells being separated by rubbing the bronchus while observing through the branchoscope, while the collection of frog cilitated cells was conducted by rubbing the palatine mucosta, without being specially careful. […] The groups of cells were transferred to a cover slip and one drop of chicken plasma (prepared by Difco Company) and one drop of 50% chicken embryo extract were added to the cells, thus forming clots. The rotary motion in the clots was recorded by means of a video recorder and the number of rotations per minute was measured.

[8] = sample 5 (viscous sputum, 2 ml), before 18

CC(=O)N[C@H]1[C@H]([C@H](O)[C@H](O)CO)OC(O)(C(=O)O)C[C@@H]1O (stereo partly shown) [N-acetylneuraminic acid]
Movement ([1]; 10^-4 g/ml, frog number 1): 17.3 s/cm
Movement ([1]; 10^-4 g/ml, frog number 2): 22.0 s/cm
Movement ([1]; 10^-4 g/ml, frog number 3): 20.7 s/cm
Movement ([1]; 10^-4 g/ml, frog number 4): 22.0 s/cm
Movement ([1]; 10^-5 g/ml, frog number 1): 21.3 s/cm
Acceleration ([1]; 10^-5 g/ml, frog number 1, control = 0): 33.4%
Movement ([1]; 10^-5 g/ml, frog number 2): 27.3 s/cm
Acceleration ([1]; 10^-5 g/ml, frog number 2, control = 0): 16.5%
Movement ([1]; 10^-5 g/ml, frog number 3): 28.7 s/cm
Acceleration ([1]; 10^-5 g/ml, frog number 3, control = 0): 28.2%
Movement ([1]; 10^-5 g/ml, frog number 4): 24.7 s/cm
activation at 10 µg/mL ([1]; 10^-5 g/ml, frog number 4, control = 0, read-out: Acceleration): 31.4%
Effect on ciliary movement of palatine mucosa ([1]; Tables 1 and 3): acceleration of the ciliary movement of palatine mucosa in a certain dose-dependency
Ciliary movement promoting effect compared with acetylcholine ([1]; acetylcholine control at 10^-5 and 10^-4): substantially the same ciliary movement promoting effect as the acetylcholine
LD50 at 336 h ([2]; iv, rats F, 95% 1741-2030): 1880 mg/kg
LD50 at 336 h ([2]; iv, rats M, 95% 1748-2001): 1870 mg/kg
LD50 at 336 h ([2]; po, per os, rats F): > 5000 mg/kg
LD50 at 336 h ([2]; po, per os, rats M): > 5000 mg/kg
LD50 at 336 h ([2]; sc, subcutaneous, rats F): > 5000 mg/kg
LD50 at 336 h ([2]; sc, subcutaneous, rats M): > 5000 mg/kg
LD50 ([3]; rats F): > 4.33 g/m^3
LD50 ([3]; rats M): > 4.33 g/m^3
Change of spinnability of sputum ([4]; 1 mg/ml): five samples showed a reduction, while one sample showed a slight increase
Change of yield value of sputum ([4]; 1 mg/ml): Increase in the yield value was observed in three samples, while three samples showed a reduction. The yield value was unchanged in the remaining one sample
Change of sputum pH value ([4]; 1 mg/ml, six samples): five out of six samples treated with 1 mg/ml of N-acetylneuraminic acid showed a reduction in pH value (pH 7.31 0.40), while the remaining one sample showed a slight increase in pH value
Yield value after treatment ([4]; sample 1 (viscous sputum, 2 ml), before 3.7): 11.5 mmH2 O
pH of sputum after treatment ([4]; sample 1 (viscous sputum, 2 ml), before 7.72): 7.35
Spinnability after treatment ([4]; sample 1 (viscous sputum, 2 ml), before 55): 19 mm
Yield value after treatment ([4]; sample 2 (viscous sputum, 2 ml), before 0.1): 0.1 mmH2 O
pH of sputum after treatment ([4]; sample 2 (viscous sputum, 2 ml), before 7.52): 7.62
Spinnability after treatment ([4]; sample 2 (viscous sputum, 2 ml), before 10): 3 mm
Yield value after treatment ([4]; sample 3 (pus sputum, 2 ml), before 2.7): 0.7 mmH2 O
Spinnability after treatment ([4]; sample 3 (pus sputum, 2 ml), before 5): 2 mm
pH of sputum after treatment ([4]; sample 3 (pus sputum, 2 ml), before 7.98): 7.20
Yield value after treatment ([4]; sample 4 (viscous sputum, 2 ml), before 1.9): 3.2 mmH2 O
pH of sputum after treatment ([4]; sample 4 (viscous sputum, 2 ml), before 6.98): 6.84
Spinnability after treatment ([4]; sample 4 (viscous sputum, 2 ml), before 22): 12 mm
Yield value after treatment ([4]; sample 5 (viscous sputum, 2 ml), before 2.2): 3.1 mmH2 O
pH of sputum after treatment ([4]; sample 5 (viscous sputum, 2 ml), before 7.24): 6.94
Spinnability after treatment [4, 8]: 16 mm
pH of sputum after treatment ([4]; sample 6 (viscous sputum, 2 ml), before 8.16): 7.88
Yield value after treatment ([4]; sample 6 (viscous sputum, 2 ml), before 14.3): 7.5 mmH2 O
Spinnability after treatment ([4]; sample 6 (viscous sputum, 2 ml), before 22): 26 mm
LD50 at 336 h ([5]; iv, mice F, 95% 2137-2925): 2500 mg/kg
LD50 at 336 h ([5]; iv, mice M, 95% 1441-2008): 1700 mg/kg
LD50 at 336 h ([5]; po, per os, mice F): > 5000 mg/kg
LD50 at 336 h ([5]; po, per os, mice M): > 5000 mg/kg
LD50 at 336 h ([5]; sc, subcutaneous, mice F): > 5000 mg/kg
LD50 at 336 h ([5]; sc, subcutaneous, mice M): > 5000 mg/kg
Change of MTR of sputum ([6]; 1 mg/ml, samples with reduced spinnability): tendency to increased MTR
MTR after treatment ([6]; sample 1 (viscous sputum, 2 ml), before 19): 38 mm/min
MTR after treatment ([6]; sample 2 (viscous sputum, 2 ml), before 8): 19 mm/min
MTR after treatment ([6]; sample 3 (pus sputum, 2 ml), before 20): 27 mm/min
MTR after treatment ([6]; sample 4 (viscous sputum, 2 ml), before 25): 29 mm/min
MTR after treatment [6, 8]: 30 mm/min
MTR after treatment ([6]; sample 6 (viscous sputum, 2 ml), before 15): 18 mm/min
Increase of rotation speed (revolutions per minute) over Medium 199 at plateau ([7]; 10^-3 to 10^-2 mg/ml, 5, 10 and 15 minutes after application): about 25%
Effect on rotary motion of the cilium cells ([7]; 10^-4 to 10^-1 mg/ml): gradually accelerated starting immediately after the application
